Laboratory results taken from US20190365927A1, “COMPOSITION FOR PHOTODYNAMIC THERAPY USING GENE EXPRESSING FLUORESCENT PROTEIN AND PHOTOSENSITIZER, AND PHOTODYNAMIC THERAPY METHOD USING SAME” (priority 2017, published 2019).

Tests used:
Lgr5+ cells = test: cFRET PDT of colon polyps in azoxymethane/DSS-treated GFP-Lgr5 mice; format: in vivo, mouse; conditions: FIG. 4E
Method: To generate sporadic tumors, azoxymethane (10 mg/kg) was intraperitoneally injected into wild-type mice or GFP-Lgr5 mice. In one week after injection, mice were given 2% DSS as drinking water for 7 days. The next 7 days, the mice were given water normally. This DSS application cycle was repeated three times. Mice were randomly divided into 4 groups (n=5 per group).
Another group of 5 mice as wild-type and GFP-Lgr5 mice was set to a group that was not chemically treated. RB was intravenously injected (50 nM/mL, 0.75 ml/kg) into the wild type and GFP-Lgr5 mice of each experimental group twice a week for 7 weeks. And, in 4 hours after the RB injection, blue light (2 min) irradiation was performed via an anal penetration.
Polyp growth was monitored by endoscopy via polyp diameter measurements. After anesthesia, the mice were placed on the stage for colonoscopy. […] Each image was captured by capturing the image from the recorded video file using frame-extraction software. The tumor size was measured from the images (width×height×2). The distance-dependent magnification of the colonoscopy was calculated by imaging using a ruler in the same field.
To compare tumor sizes before and after FR-PDT, well-isolated tumors were selected. The locomotion path used in […] was recorded in detail for each tumor. The tumor location is determined based on the structure of the surrounding tissue. […]

[1] = tested on: GFP cells and non-GFP cells; test: Peristaltic pump experiment, Hoechst 33342 and PI double staining; format: cell-based; conditions: 100 μM RB, 4 hours, flow 1 ml/min, 473 nm at 80 mW, repeated passes
Method: (1) Non-GFP and GFP cells were seeded in a 100 mm dish at a density of 1×10^7 cells. The next day, 100 μM of rose bengal (RB, santacruz, sc-203757) was applied thereto (in the subsequent procedure, light exposure was avoided as much as possible). A 4 mm ID×6 mm OD×1 mm wall sized transparent tube (Tygon, E-3603) was connected to an EP-1 Econo Pump (Bio-rad, 731-9001) in the dark room. A laser device was prepared.
In four hours after the RB treatment, cells were harvested using trypsin, suspended in 20 ml of the culture medium, and placed in a 50 ml tube. Using a pump, the cell solution passed through the tubing at a flow rate of 1 ml/min and was irradiated with light of 473 nm at an intensity of 80 mW. This process was repeated 2, 4, 8, and 10 times. The resulting cells were seeded in a 1-ml 12-well plate. The next day, double staining was performed to compare the death amounts of non-GFP and GFP cells with each other.
0.5×10^7 of non-GFP cells and 0.5×10^7 of GFP cells were mixed with each other (total 1×10^7). […]
PDT-treated cells were seeded onto a 12-well plate (1 mL per well) while controlling the PDT-treated cells to have a confluence of 50% or larger. […] The number of dead cells (PI-stained cells)/total number of cells*100 per cell image was calculated. Then, the cell death percentage was measured by calculating the average value between the calculated values of three cell images.

[2] = tested on: GFP+ and GFP− NCI-H460 cells; test: In vitro fluorescence intensity measurement after blue light irradiation (FRET); format: cell-based, human; conditions: RB 0, 5, 10, 50 uM, blue laser light 473 nm, FIG. 15
Method: Fluorescent intensities of GFP− and GFP+ cells after blue light irradiation were measured in the presence or absence of RB. The specific experimental procedure is as follows.
1×10^6 cells of GFP− and GFP+ NCI-H460 cell lines as produced by the method described in the 1-1 were cultured in a 75 cm^2 cell culture dish containing RPMI-1640 medium supplemented with 10% FBS. After 12 hours, the culture medium of the cell line was replaced with RPMI-1640 medium without FBS. Then, RBs of various concentrations (0 uM, 5 uM, 10 uM, 50 uM) were added thereto. The culturing was done for 4 hours to accumulate RB in the cells. Then, the cells were obtained by centrifugation. Pellets of each cell group were suspended in 1 ml PBS. Then, the cell was irradiated with blue laser light (473 nm, radiation dose rate=80 mW/cm^2). The light-emission spectrum of each cell group was measured using a spectrofluorometer (JASCO Inc.). Measurements in each group were repeated 5 times. The FRET efficiency was calculated by the following equation: […]
F(DA): GFP fluorescence intensity in the presence of RB, and
F(D): GFP fluorescence intensity in the absence of RB.

Question: Which results are given for `O=C1OC2(c3cc(I)c(O)c(I)c3Oc3c2cc(I)c(O)c3I)c2c(Cl)c(Cl)c(Cl)c(Cl)c21` [RB, rose bengal]?
Answer: polyp growth (Lgr5+ cells; Lgr5-EGFP-IRES-creERT2 knock-in mice compared to wild-type mice, 473 nm laser, 4F): polyp growth was inhibited; number of polyps (Lgr5+ cells; cFRET treatment): decreased; death of GFP versus non-GFP cells in mixed culture [1]: only GFP cells were specifically killed; emission intensity at 508 nm (emission peak of GFP) [2]: decreases as the concentration of RB increases
